Experiments:
[1] = system: 24S-hydroxycholesterol and 27-hydroxycholesterol; details: human subject, IV 500-1,000 mg/kg every 4 weeks; FIGS. 4A-4C
Protocol: A human subject was treated with 2-hydroxypropyl-beta-cyclodextrin with single-ascending doses administered intravenously every 4 weeks according to Table 1 below.
In this Example, a human subject was treated with 2-hydroxypropyl-beta-cyclodextrin as in Example 2, and plasma levels of 24S-hydroxycholesterol and 27-hydroxycholesterol were measured.

[2] = pre-dose blood plasma incubated ex vivo with the substance; FIG. 3B
Protocol: For each dose, whole blood was collected pre-dose, post-dose (line flush), 1 hour post-dose, and 24 hours post-dose. Plasma was separated from the whole blood and subjected to a cholesterol crystal dissolution capacity (CCDC) assay using techniques similar to those described in the literature. The CCDC assay measures the ability of a sample to dissolve cholesterol crystals. Blood plasma pre-dose was also incubated ex vivo with 2-hydroxypropyl-beta-cyclodextrin and the ability of the plasma to dissolve cholesterol crystals was measured.

[3] = human subject, single-ascending IV doses 500-1,000 mg/kg every 4 weeks; plasma pre-dose vs post-dose; FIG. 3A
Protocol: A human subject was treated with 2-hydroxypropyl-beta-cyclodextrin with single-ascending doses administered intravenously every 4 weeks according to Table 1 below. For each dose, whole blood was collected pre-dose, post-dose (line flush), 1 hour post-dose, and 24 hours post-dose. Plasma was separated from the whole blood and subjected to a cholesterol crystal dissolution capacity (CCDC) assay using techniques similar to those described in the literature. The CCDC assay measures the ability of a sample to dissolve cholesterol crystals.

ABCG1 = details: human subject, IV 500-1,000 mg/kg every 4 weeks; FIGS. 5A-5D
Protocol: (§1) A human subject was treated with 2-hydroxypropyl-beta-cyclodextrin with single-ascending doses administered intravenously every 4 weeks according to Table 1 below. In this Example, a human subject was treated with 2-hydroxypropyl-beta-cyclodextrin as in Example 2, and ABCA1 and ABCG1 mRNA levels were measured. […] ABCA1 and ABCG1 are major cellular transporters resulting in cholesterol efflux to […] or mature HDL particles. In cardiovascular disease, expression of ABC transporters correlates with plaque stability and morbidity.

ABCA1 = details: human subject, IV 500-1,000 mg/kg every 4 weeks; FIGS. 5A-5D
Protocol: as §1

## 2-hydroxypropyl-beta-cyclodextrin
[1]
  plasma level of 24S-hydroxycholesterol: increased plasma levels
  plasma level of 27-hydroxycholesterol: increased plasma levels
  total cholesterol levels: remained stable
[2]
  capacity of plasma to dissolve cholesterol crystals (CCDC): increased capacity to dissolve cholesterol crystals
[3]
  capability of blood plasma to dissolve cholesterol crystals (CCDC): increased capability of blood plasma to dissolve cholesterol crystals
ABCG1
  ABCG1 mRNA levels: increased mRNA levels
ABCA1
  ABCA1 mRNA levels: increased mRNA levels

Source: patent US20230091966A1, “METHODS FOR THE TREATMENT OF CARDIOVASCULAR DISEASE WITH CYCLODEXTRINS” (Beren Therapeutics, P.B.C., priority 2020, published 2023)
